These results are taken from patent publication US20230131966A1, “FUNGICIDAL AMIDES” (FMC Corporation, priority 2020, published 2023).

Common to all, as to format: in vivo
The subject of one assay is Phakopsora pachyrhizi. The assay is described as follows: Test A: Asian soybean rust control on soybean seedlings. Conditions: 250 ppm, soybean seedlings, 100 = 100% disease control, 0 = no control; for pest or weed control at 250 ppm: Phakopsora pachyrhizi, read-out: Test A disease control rating.
In assay [1] the test system is Puccinia recondita f. sp. tritici. In words: Test B: wheat leaf rust control on wheat seedlings. The conditions noted are these: 250 ppm, wheat seedlings, 100 = 100% disease control, 0 = no control; for pest or weed control at 250 ppm: Puccinia recondita, read-out: Test B disease control rating.
The next assay relates to Zymoseptoria tritici. The assay is described as follows: Test C: wheat leaf blotch control on wheat seedlings. Conditions: 250 ppm, wheat seedlings, 100 = 100% disease control, 0 = no control; for pest or weed control at 250 ppm: Zymoseptoria tritici, read-out: Test C disease control rating.
Another assay has as its system Plasmopara viticola. In words: Test D: grape downy mildew control on grape seedlings. Conditions: 250 ppm, 100 = 100% disease control, 0 = no control; for pest or weed control at 250 ppm: Plasmopara viticola, read-out: Test D disease control rating.
Another assay deals with Botrytis cinerea. In words: Test E: tomato Botrytis control on tomato seedlings. The conditions noted are these: 250 ppm, 100 = 100% disease control, 0 = no control; for pest or weed control at 250 ppm: Botrytis cinerea, read-out: Test E disease control rating.
A further assay relates to Phytophthora infestans. The assay is described as follows: whole plant or invertebrate. The conditions noted are these: tomato seedlings, 100 = 100% disease control, 0 = no control; for Test F disease control rating: 250 ppm; for pest or weed control at 250 ppm: Phytophthora infestans, in Solanum lycopersicum, read-out: Test F disease control rating, 250 ppm.
The test system of assay [2] is Erysiphe graminis f. sp. tritici. In words: Test G: wheat powdery mildew control on wheat seedlings. Conditions: 250 ppm, 100 = 100% disease control, 0 = no control; for pest or weed control at 250 ppm: Blumeria graminis, read-out: Test G disease control rating.

In the case of `COc1ccnc(C(=O)NC(C)C(=O)OC(C)C2Cc3ccccc3O2)c1OC(C)=O` (mixture of isomers) [Compound 186], the “Test A disease control rating” value with Phakopsora pachyrhizi is 94%. Further, the “Test B disease control rating” value in assay [1] was 100%. The “Test C disease control rating” value with Zymoseptoria tritici came to 83%. In the assay on Plasmopara viticola, the “Test D disease control rating” value is listed as 14%. Also, in the assay on Botrytis cinerea, the “Test E disease control rating” value is given as 0%. In the assay with Phytophthora infestans, the “Test F disease control rating” value came out at 0%. Moreover, the “Test G disease control rating” value in assay [2] amounted to 0%.
As for `COc1cccc(C(=O)NC(C)C(=O)OC(C)c2ccccc2Cc2ccccc2)c1O` (centres unmarked) [Compound 6], the pest or weed control at 250 ppm (with Phakopsora pachyrhizi; in assay [1]; with Zymoseptoria tritici; in the assay on Botrytis cinerea; in assay [2]) was 0% in each case. The “Test D disease control rating” value in the assay on Plasmopara viticola is on record as 28%. Besides, in the assay on Phytophthora infestans, the “Test F disease control rating” value is listed as 0%.
Turning to `COc1ccnc(C(=O)N[C@H](C(=O)OC(C)c2ccc(C3CCCCC3)cc2)C(C)C)c1OC(C)=O` (mixture of isomers) [Compound 79, N-[[3-(acetyloxy)-4-methoxy-2-pyridinyl]carbonyl]-L-valine 1-(4-cyclohexylphenyl)ethyl ester], the pest or weed control at 250 ppm in the assay with Phakopsora pachyrhizi was 100%; in assay [1] it was 100%; in the assay with Zymoseptoria tritici it was 100%; in the assay with Plasmopara viticola, 11%; with Botrytis cinerea, 0%; in the assay on Phytophthora infestans, 0%. Further, in assay [2], the pest or weed control at 250 ppm stood at 0%.
Regarding `CCC(OC(=O)[C@H](C)NC(=O)c1nccc(OC)c1OC(C)=O)C1CCCCC1` (single isomer, unassigned) [Compound 169], in the assay on Phakopsora pachyrhizi, the “Test A disease control rating” value worked out at 100%. Moreover, the “Test B disease control rating” value in assay [1] is recorded as 41%. Further, the “Test C disease control rating” value in the assay on Zymoseptoria tritici turned out to be 83%. The “Test D disease control rating” value with Plasmopara viticola was determined as 17%. For the same compound, the “Test E disease control rating” value in the assay on Botrytis cinerea is given as 0%. Further, the “Test F disease control rating” value in the assay on Phytophthora infestans is on record as 0%. For the same compound, the “Test G disease control rating” value in assay [2] was 35%.
As to `COc1ccnc(C(=O)NC(C)C(=O)OC(C)c2ccc(C(F)(F)F)cc2)c1O` (mixture of isomers) [Compound 36], the “Test A disease control rating” value in the assay with Phakopsora pachyrhizi was 100%. The “Test B disease control rating” value in assay [1] amounted to 99%. Besides, the “Test C disease control rating” value in the assay on Zymoseptoria tritici was 81%. The “Test D disease control rating” value in the assay on Plasmopara viticola is given as 72%. For the same compound, the “Test E disease control rating” value with Botrytis cinerea stood at 0%. For the same compound, the “Test F disease control rating” value in the assay with Phytophthora infestans was 0%. In addition, the “Test G disease control rating” value in assay [2] came out at 0%.
Turning to `CCOC(=O)c1cnn(-c2ccc(C(C)OC(=O)C(C)NC(=O)c3nccc(OC)c3OC(C)=O)cc2)c1` (mixture of isomers) [Compound 47], the “Test A disease control rating” value with Phakopsora pachyrhizi is recorded as 99%. For the same compound, the “Test B disease control rating” value in assay [1] was 68%. The “Test C disease control rating” value in the assay on Zymoseptoria tritici was found to be 51%. For the same compound, in the assay with Plasmopara viticola, the “Test D disease control rating” value worked out at 20%. For the same compound, the “Test E disease control rating” value with Botrytis cinerea turned out to be 0%. Moreover, the “Test F disease control rating” value with Phytophthora infestans is 0%. Besides, the “Test G disease control rating” value in assay [2] came out at 0%.
Regarding `COc1ccnc(C(=O)NC(C)C(=O)OC(C)c2ccc(OC3CCCCC3)cc2)c1O` (mixture of isomers) [Compound 53], the “Test A disease control rating” value in the assay on Phakopsora pachyrhizi worked out at 56%. Further, the “Test B disease control rating” value in assay [1] was determined as 55%. Further, the “Test C disease control rating” value in the assay on Zymoseptoria tritici came to 22%. Moreover, the “Test D disease control rating” value in the assay with Plasmopara viticola came out at 22%. Further, in the assay with Botrytis cinerea, the “Test E disease control rating” value is recorded as 0%. Besides, in the assay with Phytophthora infestans, the “Test F disease control rating” value worked out at 0%. The “Test G disease control rating” value in assay [2] is reported as 0%.
As for `C=CCOc1c(OC)ccnc1C(=O)NC(C)C(=O)OC(C)c1ccc(C2CCCCC2)cc1` (mixture of isomers) [Compound 153], in the assay with Phakopsora pachyrhizi, the “Test A disease control rating” value stood at 100%. Besides, the “Test B disease control rating” value in assay [1] is 95%. The “Test C disease control rating” value in the assay with Zymoseptoria tritici was determined as 24%. Moreover, the “Test D disease control rating” value with Plasmopara viticola is recorded as 70%. For the same compound, the “Test E disease control rating” value with Botrytis cinerea came out at 0%. The “Test F disease control rating” value in the assay with Phytophthora infestans is reported as 26%. For the same compound, in assay [2], the “Test G disease control rating” value is 0%.
For the compound `COc1ccnc(C(=O)N[C@@H](C)C(=O)OC(C)c2ccccc2Oc2ccc(F)cc2)c1OC(C)=O` (single isomer, unassigned) [Compound 57], the “Test A disease control rating” value in the assay on Phakopsora pachyrhizi was 99%. Further, the “Test B disease control rating” value in assay [1] is 98%. Besides, the “Test C disease control rating” value in the assay with Zymoseptoria tritici is given as 88%. Moreover, the “Test D disease control rating” value with Plasmopara viticola was 16%. Further, the “Test E disease control rating” value in the assay on Botrytis cinerea was found to be 0%. In the assay on Phytophthora infestans, the “Test F disease control rating” value was 0%. Besides, the “Test G disease control rating” value in assay [2] is 0%.
As for `COc1ccnc(C(=O)NC(C)C(=O)OC(C)c2ccc3ccccc3c2)c1OC(C)=O` (mixture of isomers) [Compound 75], the “Test A disease control rating” value with Phakopsora pachyrhizi is 100%. The “Test B disease control rating” value in assay [1] worked out at 100%. Moreover, the “Test C disease control rating” value in the assay with Zymoseptoria tritici was found to be 100%. Besides, in the assay on Plasmopara viticola, the “Test D disease control rating” value was found to be 61%. The “Test E disease control rating” value with Botrytis cinerea was determined as 0%. Further, the “Test F disease control rating” value in the assay on Phytophthora infestans was 0%. Further, in assay [2], the “Test G disease control rating” value is given as 0%.
For `CCC(OC(=O)[C@H](C)NC(=O)c1nccc(OC)c1OCOC(=O)C(C)C)c1ccc(C2CCCCC2)cc1` (single isomer, unassigned) [Compound 133], the “Test A disease control rating” value in the assay on Phakopsora pachyrhizi is reported as 100%. The “Test B disease control rating” value in assay [1] came to 99%. For the same compound, the “Test C disease control rating” value in the assay with Zymoseptoria tritici came to 93%. Also, the “Test D disease control rating” value with Plasmopara viticola is 24%. For the same compound, in the assay on Botrytis cinerea, the “Test E disease control rating” value was determined as 0%. Further, the “Test F disease control rating” value in the assay on Phytophthora infestans was found to be 0%. Also, the “Test G disease control rating” value in assay [2] is 0%.
Regarding `C#Cc1ccc(C(C)OC(=O)C(C)NC(=O)c2nccc(OC)c2O)cc1` (mixture of isomers) [Compound 78], the “Test A disease control rating” value in the assay on Phakopsora pachyrhizi was 100%. In addition, in assay [1], the “Test B disease control rating” value was found to be 100%. The “Test C disease control rating” value with Zymoseptoria tritici stood at 82%. In addition, the “Test D disease control rating” value with Plasmopara viticola stood at 85%. In addition, the “Test E disease control rating” value in the assay with Botrytis cinerea is 0%. Moreover, the “Test F disease control rating” value in the assay with Phytophthora infestans stood at 0%. For the same compound, the “Test G disease control rating” value in assay [2] was determined as 0%.
As for `CCC(OC(=O)[C@H](C)NC(=O)c1nccc(OC)c1O)C1CCCCC1` (mixture of isomers) [Compound 84, N-[(3-hydroxy-4-methoxy-2-pyridinyl)carbonyl]-L-alanine 1-cyclohexylpropyl ester], the pest or weed control at 250 ppm in the assay with Phakopsora pachyrhizi was found to be 100%; in assay [1], 100%; in the assay on Zymoseptoria tritici, 57%; in the assay with Plasmopara viticola, 21%; in the assay with Botrytis cinerea it was 0%; in the assay on Phytophthora infestans, 0%. Further, the pest or weed control at 250 ppm in assay [2] turned out to be 0%.
`CC(NC(=O)c1cccc(N)c1O)C(=O)OC(C)c1ccccc1Cc1ccccc1` (racemic) [Compound 9]: the pest or weed control at 250 ppm in the assay on Phakopsora pachyrhizi worked out at 95%; in assay [1], 91%; in the assay with Zymoseptoria tritici, 53%; in the assay on Plasmopara viticola, 97%; in the assay with Botrytis cinerea, 0%; in the assay with Phytophthora infestans it was 76%. Besides, the pest or weed control at 250 ppm in assay [2] came to 0%.
